BindingDB's records for doi:10.1016/j.bmcl.2004.01.021 (Atherogenics, 2004)

Target: T1, Tumor necrosis factor receptor superfamily member 1A (Homo sapiens, UniProt P19438)
T1 sequence (P19438 whole entry): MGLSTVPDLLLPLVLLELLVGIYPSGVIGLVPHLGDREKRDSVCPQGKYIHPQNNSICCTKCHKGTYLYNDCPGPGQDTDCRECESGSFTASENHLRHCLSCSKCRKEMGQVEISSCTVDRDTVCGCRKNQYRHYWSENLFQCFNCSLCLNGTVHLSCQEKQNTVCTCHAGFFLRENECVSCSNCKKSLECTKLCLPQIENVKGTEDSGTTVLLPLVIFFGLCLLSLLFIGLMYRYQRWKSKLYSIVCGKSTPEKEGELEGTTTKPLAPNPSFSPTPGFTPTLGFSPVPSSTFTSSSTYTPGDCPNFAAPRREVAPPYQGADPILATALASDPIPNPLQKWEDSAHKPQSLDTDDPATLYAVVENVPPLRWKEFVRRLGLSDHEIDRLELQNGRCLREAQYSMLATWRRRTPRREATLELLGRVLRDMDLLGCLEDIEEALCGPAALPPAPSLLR
Test: ChEBML_224214
Description: Inhibition of TNF-alpha-induced VCAM-1 expression

Structure (SMILES)	IC50 [µM]
COc1ccc(/C=C/C(=O)c2ccc(OC)cc2OC)cc1 [1-(2,4-Dimethoxy-phenyl)-3-(4-methoxy-phenyl)-propenone]	7
COc1ccc(C(=O)/C=C/c2ccccc2)cc1 [1-(4-methoxyphenyl)-3-phenylprop-2-en-1-one (6)]	14
COc1cc(OC)c(-c2cc3ccccc3s2)cc1/C=C/C(=O)c1ccc(OC(C)(C)C(=O)O)cc1 [2-{4-[(E)-3-(5-Benzo[b]thiophen-2-yl-2,4-dimethoxy-phenyl)-acryloyl]-phenoxy}-2-methyl-propionic acid]	6
COc1cc(OC(C)(C)C(=O)O)c(/C=C/C(=O)c2ccc(C(F)(F)F)cc2)cc1-c1cccs1 [2-{5-Methoxy-2-[(E)-3-oxo-3-(4-trifluoromethyl-phenyl)-propenyl]-4-thiophen-2-yl-phenoxy}-2-methyl-propionic acid]	4
COc1ccc(C(=O)/C=C/c2ccccc2)cc1OC [3',4'-dimethoxychalcone]	8
COc1ccc(C(=O)/C=C/c2ccc(OC)cc2OC)cc1 [3-(2,4-Dimethoxy-phenyl)-1-(4-methoxy-phenyl)-propenone]	29
COc1cc(OC)c(CCC(=O)c2cc(OC)c(OC)c(OC)c2)cc1Br [3-(5-Bromo-2,4-dimethoxy-phenyl)-1-(3,4,5-trimethoxy-phenyl)-propan-1-one]	> 50
COc1ccc(Br)cc1CCC(=O)c1cc(OC)c(OC)c(OC)c1 [3-(5-Bromo-2-methoxy-phenyl)-1-(3,4,5-trimethoxy-phenyl)-propan-1-one]	> 50
COc1cc(C(=O)/C=C/c2ccccc2)cc(OC)c1OC [3-phenyl-1-(3,4,5-trimethoxyphenyl)prop-2-en-1-one]	6
CCOC(=O)c1ccc(COc2ccc(C(=O)/C=C/c3cc(-c4cccs4)ccc3OC)cc2OC)cc1 [4-{2-Methoxy-4-[(E)-3-(2-methoxy-5-thiophen-2-yl-phenyl)-acryloyl]-phenoxymethyl}-benzoic acid ethyl ester]	4
COc1ccc(-c2cccs2)cc1/C=C/C(=O)c1ccc(OCc2ccc(C(=O)O)cc2)c(OC)c1 [4-{2-Methoxy-4-[(E)-3-(2-methoxy-5-thiophen-2-yl-phenyl)-acryloyl]-phenoxymethyl}-benzoic acid]	5
COc1ccc(-c2cccs2)cc1C=CC(=O)c1ccc(OCc2ccc(NC(=O)OC(C)(C)C)cc2)c(OC)c1 [(4-{2-Methoxy-4-[(E)-3-(2-methoxy-5-thiophen-2-yl-phenyl)-acryloyl]-phenoxymethyl}-phenyl)-carbamic acid tert-butyl ester]	> 50
O=C(/C=C/c1ccc(F)cc1)c1ccc(F)cc1 [(E)-1,3-Bis-(4-fluoro-phenyl)-propenone]	25
COc1cc(/C=C/C(=O)c2ccc3c(c2)OC(O)(O)O3)cc(-c2cccs2)c1OC [(E)-1-(2,2-Dihydroxy-benzo[1,3]dioxol-5-yl)-3-(3,4-dimethoxy-5-thiophen-2-yl-phenyl)-propenone]	1
COc1ccc(OC)c(C(=O)/C=C/c2cc(-c3cccs3)ccc2OC)c1 [(E)-1-(2,5-Dimethoxy-phenyl)-3-(2-methoxy-5-thiophen-2-yl-phenyl)-propenone]	2
COc1ccc(-c2cccs2)cc1/C=C/C(=O)c1c(OC)cccc1OC [(E)-1-(2,6-Dimethoxy-phenyl)-3-(2-methoxy-5-thiophen-2-yl-phenyl)-propenone]	3
COc1ccc(/C=C/C(=O)c2ccc(OC)c(OC)c2)cc1 [(E)-1-(3',4'-Dimethoxyphenyl)-3-(4''-methoxyphenyl)prop-2-en-1-one]	6
COc1cc(-c2cccc(C(C)=O)c2)ccc1C(=O)C=Cc1cc(OC)c(OC)c(OC)c1 [(E)-1-(3'-Acetyl-3-methoxy-biphenyl-4-yl)-3-(3,4,5-trimethoxy-phenyl)-propenone]	4
COc1ccc(-c2cccs2)cc1/C=C/C(=O)c1ccc(OC)c(OC)c1 [(E)-1-(3,4-Dimethoxy-phenyl)-3-(2-methoxy-5-thiophen-2-yl-phenyl)-propenone]	3
COc1ccc(C(=O)/C=C/c2ccc(-c3cccs3)cc2)cc1OC [(E)-1-(3,4-Dimethoxy-phenyl)-3-(4-thiophen-2-yl-phenyl)-propenone]	12
COc1ccc(-c2cc(C)cs2)cc1/C=C/C(=O)c1ccc(OC)c(OC)c1 [(E)-1-(3,4-Dimethoxy-phenyl)-3-[2-methoxy-5-(4-methyl-thiophen-2-yl)-phenyl]-propenone]	2
COc1ccc(-c2ccc(C)s2)cc1/C=C/C(=O)c1ccc(OC)c(OC)c1 [(E)-1-(3,4-Dimethoxy-phenyl)-3-[2-methoxy-5-(5-methyl-thiophen-2-yl)-phenyl]-propenone]	2

Structure (SMILES)	IC50 [µM]
COc1ccc(/C=C/C(=O)c2cc(C(C)(C)C)c(O)c(C(C)(C)C)c2)cc1 [(E)-1-(3,5-Di-tert-butyl-4-hydroxy-phenyl)-3-(4-methoxy-phenyl)-propenone]	> 50
CC(C)(C)c1cc(C(=O)/C=C/c2ccccc2)cc(C(C)(C)C)c1O [(E)-1-(3,5-Di-tert-butyl-4-hydroxy-phenyl)-3-phenyl-propenone]	47
COc1ccc(/C=C/C(=O)c2cc(C(C)(C)C)c(OC)c(C(C)(C)C)c2)cc1 [(E)-1-(3,5-Di-tert-butyl-4-methoxy-phenyl)-3-(4-methoxy-phenyl)-propenone]	17
COc1c(C(C)(C)C)cc(C(=O)/C=C/c2ccccc2)cc1C(C)(C)C [(E)-1-(3,5-Di-tert-butyl-4-methoxy-phenyl)-3-phenyl-propenone]	9
COc1cc(OC)cc(C(=O)/C=C/c2cc(-c3cccs3)ccc2OC)c1 [(E)-1-(3,5-Dimethoxy-phenyl)-3-(2-methoxy-5-thiophen-2-yl-phenyl)-propenone]	2
COc1ccc(-c2cc(C(=O)/C=C/c3cc(OC)c(OC)c(OC)c3)c(OC)cc2OC)c(OC)c1 [(E)-1-(4,6,2',4'-Tetramethoxy-biphenyl-3-yl)-3-(3,4,5-trimethoxy-phenyl)-propenone]	3
COc1cc(/C=C/C(=O)c2cc(OC)c(OCc3ccccc3)c(OC)c2)cc(Br)c1OC [(E)-1-(4-Benzyloxy-3,5-dimethoxy-phenyl)-3-(3-bromo-4,5-dimethoxy-phenyl)-propenone]	> 50
O=C(/C=C/c1ccc(F)c(-c2cccs2)c1)c1ccc(F)cc1 [(E)-1-(4-Fluoro-phenyl)-3-(4-fluoro-3-thiophen-2-yl-phenyl)-propenone]	4
COc1cc(C(=O)/C=C/c2cc(-c3cccs3)ccc2OC)ccc1O [(E)-1-(4-Hydroxy-3-methoxy-phenyl)-3-(2-methoxy-5-thiophen-2-yl-phenyl)-propenone]	7
COc1ccc(C(=O)/C=C/c2cc(-c3cccs3)ccc2OC)cc1 [(E)-1-(4-Methoxy-phenyl)-3-(2-methoxy-5-thiophen-2-yl-phenyl)-propenone]	3
COc1ccc(-c2cccs2)cc1/C=C/C(=O)c1ccc2c(c1)OCO2 [(E)-1-Benzo[1,3]dioxol-5-yl-3-(2-methoxy-5-thiophen-2-yl-phenyl)-propenone]	4
COc1ccc(-c2cc(C)cs2)cc1/C=C/C(=O)c1ccc2c(c1)OCO2 [(E)-1-Benzo[1,3]dioxol-5-yl-3-[2-methoxy-5-(4-methyl-thiophen-2-yl)-phenyl]-propenone]	4
COc1ccc(-c2ccc(C)s2)cc1/C=C/C(=O)c1ccc2c(c1)OCO2 [(E)-1-Benzo[1,3]dioxol-5-yl-3-[2-methoxy-5-(5-methyl-thiophen-2-yl)-phenyl]-propenone]	3
COCCOc1c(OC)cc(C(=O)/C=C/c2cc(OC)c(OC)c(OC)c2)cc1OC [(E)-1-[3,5-Dimethoxy-4-(2-methoxy-ethoxy)-phenyl]-3-(3,4,5-trimethoxy-phenyl)-propenone]	5
COc1cc(/C=C/C(=O)c2cc(OC)c(OCc3cc(OC)c(OC)c(OC)c3)c(OC)c2)cc(OC)c1OC [(E)-1-[3,5-Dimethoxy-4-(3,4,5-trimethoxy-benzyloxy)-phenyl]-3-(3,4,5-trimethoxy-phenyl)-propenone]	3
COC1=C(c2c(OC)cc(C(=O)/C=C/c3cc(OC)c(OC)c(OC)c3)cc2OC)Oc2ccccc2O1 [(E)-1-[3,5-Dimethoxy-4-(3-methoxy-benzo[1,4]dioxin-2-yl)-phenyl]-3-(3,4,5-trimethoxy-phenyl)-propenone]	2
COc1ccc(COc2c(OC)cc(C(=O)/C=C/c3cc(OC)c(OC)c(OC)c3)cc2OC)cc1 [(E)-1-[3,5-Dimethoxy-4-(4-methoxy-benzyloxy)-phenyl]-3-(3,4,5-trimethoxy-phenyl)-propenone]	1
COc1cc(/C=C/C(=O)c2cc(OC)c(OCc3cccs3)c(OC)c2)cc(OC)c1OC [(E)-1-[3,5-Dimethoxy-4-(thiophen-2-ylmethoxy)-phenyl]-3-(3,4,5-trimethoxy-phenyl)-propenone]	3
COC1=C(c2ccc(C(=O)/C=C/c3cc(OC)c(OC)c(OC)c3)cc2OC)Oc2ccccc2O1 [(E)-1-[3-Methoxy-4-(3-methoxy-benzo[1,4]dioxin-2-yl)-phenyl]-3-(3,4,5-trimethoxy-phenyl)-propenone]	4
COc1ccc(-c2cccs2)cc1/C=C/C(=O)c1ccc(OCc2ccccn2)c(OC)c1 [(E)-1-[3-Methoxy-4-(pyridin-2-ylmethoxy)-phenyl]-3-(2-methoxy-5-thiophen-2-yl-phenyl)-propenone]	3
COc1ccc(-c2cccs2)cc1/C=C/C(=O)c1ccc(OCc2cccnc2)c(OC)c1 [(E)-1-[3-Methoxy-4-(pyridin-3-ylmethoxy)-phenyl]-3-(2-methoxy-5-thiophen-2-yl-phenyl)-propenone]	3
